Literature values, collected in PMC3652662 (Journal of molecular recognition : JMR, 2009).

Test system: HIV-1YU2 gp120
Details: SPR direct binding, HIV-1 Env YU2 (clade B) gp120; ref Gopi et al. (2008)

## RINNIPWSEAMM [Peptide 12p1]
  ka: 13600 M⁻¹ s⁻¹
